pIC50: −log10 of the molar value.

Series [1] concerns MCF-7 (breast cancer) cells. Briefly: MTT cytotoxicity assay, MCF-7. Format: cell-based. The settings on record: MCF-7, MTT, 72 h. The method, then: (§1) All tested compounds were dissolved in DMSO at a final concentration of 50 mmol/L and stored at −20°C before use. Cytotoxicity was assessed by using the 3-(4,5-dimethylthiazol-2-yl)-2, 5-diphenyltetrazolium bromide (MTT) (5.0 mg/ml) assay as previously described. Briefly, 4×10^3 cells per well were seeded in 96-well plates before drug treatments. After overnight culture, the cells were then exposed to different concentrations of selected compounds ([…]) for 72 hours. Cells without drug treatment were used as control. Subsequently, MTT (10 μL) solution was added to each well and incubated at 37°C for 4 hours followed by the addition of 100 μL solubilization buffer (10%SDS in 0.01 mol/L HCl) and overnight incubation. A570 nm was then determined in each well on the next day. The percentage of cell viability was calculated using the following formula: Cell viability (%) = Atreated/Acontrol × 100. Data were obtained from three independent experiments.
(In general: Formazan colour is commonly taken as a measure of viable cells.)

The target in a further series is P-gp ATPase (Homo sapiens, UniProt P08183). The settings on record: 0–2 μM, verapamil (200 μM) stimulated, ATP, 1 h at 37°C. The method, then:
The luminescence of the sample reflects the ATP level in the sample, which is negatively correlated with the activity of P-gp ATPase and was recorded using the SpectraMax Paradigm Multi-Mode Microplate Reader (Molecular Devices). DMSO-treated activities are expressed as the percentage of basal activity.

Series [2] relates to A549 taxol-resistant cancer cells. Nature of the series: MTT cytotoxicity, taxol-resistant A549. Format: cell-based.
Text: (§2) All cells were obtained from the American Type Culture Collection (Rockville, MD, USA) unless otherwise specified. Immortalized wild-type and Atg7-deficient mouse embryonic fibroblasts (MEFs) were kindly provided by Professor Masaaki Komatsu (Juntendo University, School of Medicine, Japan). Taxol-resistant types of MCF-7, HCT-8, A549 cancers cells and cisplatin-resistant SGC7901 cancer cells were purchased from KeyGEN BioTECH, China. Cisplatin-sensitive or –resistant A2780, OV2008 and C13 cancer cells were kindly provided by Prof. Benjamin Tsang (Department of Obstetrics and Gynecology and Department of Cellular and Molecular Medicine, University of Ottawa, Canada). HCT116 p53^+/+ and p53^−/− isogenic human colon cancer cells were kindly provided by Professor Bert Vogelstein (Ludwig Center at Johns Hopkins, Howard Hughes Medical Institute, USA). All media were supplemented with 10% fetal bovine serum and antibiotics penicillin (50 U/ml) and streptomycin (50 μg/ml; Invitrogen, Paisley, Scotland, UK). All cell cultures were incubated at 37°C in a 5% humidified CO2 incubator.
as §1

Series [3] has as its system SGC-7901 cisplatin-sensitive cancer cells. Nature of the series: MTT cytotoxicity, cisplatin-sensitive SGC-7901. Format: cell-based. The settings on record: 72 h.
Text: as §2, §1

The subject of series [4] is OV2008 (cisplatin-sensitive) cells. Briefly: MTT cytotoxicity, OV2008 (cisplatin-sensitive). Particulars: 72 h, read-out: IC50 value, cisplatin-sensitive cancer, OV2008. Format: cell-based.
Text: as §2, §1

Series [5] relates to LLC-1 Lewis lung cancer xenograft. Nature of the series: LLC-1 xenograft tumor model. It is filed as in vivo. The settings on record: LLC-1 bearing C57BL/6 mice, 10 days. The method, then:
The mice were maintained under specific pathogen-free condition in a 12-h light-dark cycle. 8-week-old C57BL/6 mice (female body weight: 22 ± 4 g and male body weight 25 ± 4g) were purchased from The Chinese University of Hong Kong. The animals were housed in a 12 hours light/dark cycles and temperature-controlled room and given ad libitum access to food and water. All of the experiments were carried out in accordance to the “Institutional Animal Care and User Committee guidelines” of the Macau University of Science and Technology. C57BL/6 were randomly grouped (10 mice per group) and intraperitoneal injected with 40 mg/kg or 80 mg/kg of cobalt complex 2 or 40 mg/kg or 80 mg/kg of water-soluble form of cobalt complex 2. Xenograft mouse model was constructed as previously described. LLC-1 Lewis lung cancer cells (1 × 10^6 cells) were subcutaneously injected in the right dorsal region of the mice. After tumors grew to about 100 mm^3, the mice were randomly divided into 3 groups: 1) the control group, 2) 40 or 80 mg/kg cobalt complex 2 group, and 3) 40 mg/kg cobalt complex 2W (water soluble form). […] The body weight of each mouse was recorded with the tumor volume determined by Vernier caliper using the formula of L × W^2 × 0.52, where Lis the longest diameter of tumor and W is the shortest diameter of tumor. […]

The test system of series [6] is HCT-8 taxol-sensitive cancer cells. Nature of the series: MTT cytotoxicity, taxol-sensitive HCT-8. The settings on record: 72 h. Format: cell-based.
Text: as §2, §1

Series [7] has as its system HeLa cancer cells. Nature of the series: Western blot of autophagy markers. It is filed as cell-based. The protocol:
(§3) Western blot analysis was carried out following standard methods. Cells were lysed with RIPA lysis buffer with protease and phosphatase inhibitor cocktails. Protein concentrations were determined using the Bio-Rad protein assay (Bio-Rad Laboratories, Inc., Hercules, CA, USA). After electrophoresis, the proteins from SDS/PAGE were electro-transferred to a Hybond enhanced chemiluminescence nitrocellulose membrane (Amersham Biosciences, NJ, USA), which was then blocked with 5% dried milk for 1 hour. After washing, the blot was incubated with the indicated primary antibodies overnight at 4°C. Detection was performed using appropriated HRP-conjugated secondary antibodies for 1 hour at RT followed by chemiluminescence (Invitrogen).
A general note: A western blot detects proteins with antibodies after separation by electrophoresis.

For series [8], the system named is normal human LO2 hepatocytes. Briefly: MTT cytotoxicity assay, LO2. It is filed as cell-based. Particulars: 72 h. The protocol: as §1
For series [9], the system named is MCF-7 taxol-resistant cancer cells. Briefly: MTT cytotoxicity, taxol-resistant MCF-7. Format: cell-based.
Text: as §2, §1

In series [10] the test system is HeLa cancer cells. Briefly: Western blot of S phase cell cycle markers. Format: cell-based. Particulars: 24 h, 10 and 15 μM. The protocol: as §3
Series [11] relates to A2780 cisplatin-sensitive cancer cells. Briefly: MTT cytotoxicity, cisplatin-sensitive A2780. Format: cell-based. Particulars: 72 h.
Text: as §2, §1

Series [12] concerns C13 (cisplatin-resistant) cells. Nature of the series: MTT cytotoxicity, C13 (cisplatin-resistant). Format: cell-based.
Text: as §2, §1

Sequence of P-gp ATPase (P08183 whole entry): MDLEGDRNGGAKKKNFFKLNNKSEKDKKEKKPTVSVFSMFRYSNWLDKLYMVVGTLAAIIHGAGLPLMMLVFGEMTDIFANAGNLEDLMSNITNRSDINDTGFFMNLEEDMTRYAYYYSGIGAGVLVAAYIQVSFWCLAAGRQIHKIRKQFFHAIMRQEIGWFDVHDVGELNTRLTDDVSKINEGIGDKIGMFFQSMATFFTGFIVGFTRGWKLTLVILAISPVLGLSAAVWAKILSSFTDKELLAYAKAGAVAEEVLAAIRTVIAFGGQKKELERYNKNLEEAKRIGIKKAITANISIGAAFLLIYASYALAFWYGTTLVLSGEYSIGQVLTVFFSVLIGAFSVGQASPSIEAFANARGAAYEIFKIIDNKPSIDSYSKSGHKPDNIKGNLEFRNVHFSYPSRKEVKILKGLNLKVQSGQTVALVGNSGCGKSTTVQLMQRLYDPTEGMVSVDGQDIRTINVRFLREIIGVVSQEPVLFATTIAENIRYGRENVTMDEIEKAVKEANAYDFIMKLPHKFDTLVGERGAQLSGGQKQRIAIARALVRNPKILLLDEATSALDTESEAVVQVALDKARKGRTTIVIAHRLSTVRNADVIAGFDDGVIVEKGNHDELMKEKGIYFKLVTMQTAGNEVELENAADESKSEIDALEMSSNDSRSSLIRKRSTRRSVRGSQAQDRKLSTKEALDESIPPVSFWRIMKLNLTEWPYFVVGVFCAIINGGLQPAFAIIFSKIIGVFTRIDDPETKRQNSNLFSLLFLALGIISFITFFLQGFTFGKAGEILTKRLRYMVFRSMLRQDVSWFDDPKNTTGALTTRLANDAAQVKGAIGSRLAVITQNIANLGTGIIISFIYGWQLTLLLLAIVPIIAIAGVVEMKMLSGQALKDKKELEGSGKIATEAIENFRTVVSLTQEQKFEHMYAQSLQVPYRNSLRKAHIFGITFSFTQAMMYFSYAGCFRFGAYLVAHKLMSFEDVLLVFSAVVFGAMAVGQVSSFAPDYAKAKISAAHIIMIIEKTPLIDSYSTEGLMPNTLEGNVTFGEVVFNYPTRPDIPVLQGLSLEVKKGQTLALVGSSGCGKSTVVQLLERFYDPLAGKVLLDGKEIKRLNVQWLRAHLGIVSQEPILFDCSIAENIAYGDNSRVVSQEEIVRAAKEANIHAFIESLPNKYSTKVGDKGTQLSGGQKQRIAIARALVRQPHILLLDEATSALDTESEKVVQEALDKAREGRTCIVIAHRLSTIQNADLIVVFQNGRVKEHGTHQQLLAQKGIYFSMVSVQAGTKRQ

Regarding `Cc1ccnc(-c2cc(C)ccn2)c1.Cc1ccnc(-c2cc(C)ccn2)c1.Cc1ccnc(-c2cc(C)ccn2)c1.F[P-](F)(F)(F)(F)F.F[P-](F)(F)(F)(F)F.F[P-](F)(F)(F)(F)F.[Co+3]` [complex 2, [Co^III(4,4’-Me2-bpy)3](PF6)3], the pIC50 – broadly, the negative decadic logarithm of the IC50, by convention in mol/L – is 5.22 in series [1]; 5.55 in [2] (A549 taxol-resistant, MTT, 72 h); 4.95 in series [3]; 5.12 in [4]; 5.47 in series [6]; 4.88 in series [8]. The pIC50 in [9] (MCF-7 taxol-resistant, MTT, 72 h) is 5.57; in series [11], 4.91; in [12] (C13 (cisplatin-resistant), MTT, 72 h, read-out: IC50 value, cisplatin-resistant cancer, C13) it was 5.12. Moreover, at P-gp ATPase, the “P-gp ATPase activity (change in luminescence)” value is reported as “dose-dependently inhibited the ATPase activity of P-gp”. For the same compound, the “Resistant Factor, A549” value in [2] (IC50 of taxol-resistant cells over IC50 of taxol-sensitive cells, A549) is 0.25. Further, the “reduction in tumor volume” value in series [5] (IP 40 mg/kg/day or 80 mg/kg/day, P < 0.05) was “up to 50%”. Moreover, the body weight entry in [5] (IP daily) is “no significant reduction in body weight”. Besides, the “protein expression of p62 and P-p70S6K” value with HeLa cancer cells [7] (10μM and 15μM) was “prominently reduced”. The LC3-II protein conversion entry in the series with HeLa cancer cells [7] (24 h) was “dose-dependently increased the LC3-II protein conversion”. Further, the “expression of beclin-1 protein” value in the series with HeLa cancer cells [7] (24 h, vs untreated control) is reported as “upregulated”. For the same compound, the “Resistant Factor, MCF-7” value in series [9] (IC50 of taxol-resistant cells over IC50 of taxol-sensitive cells, MCF-7) is 0.68. In addition, the “protein level of cyclin A and E2F” value with HeLa cancer cells [10] is “significant accumulation”. Moreover, the “protein level of cyclin D and E, cdk4, and cdk2” value in the series on HeLa cancer cells [10] is recorded as “decreased”. Moreover, in [12] (C13 (resistant) IC50 over OV2008 (sensitive) IC50), the “Resistant Factor, OV2008/C13 pair” value is 1.0.
